Assay results: article PMC9728921, “Characterization of a KDM5 small molecule inhibitor with antiviral activity against hepatitis B virus” (PLOS ONE, 2022)
“Also recorded” adds a separate entry of the source.

Key:
[1] = molecular target: KDM6A (Homo sapiens, UniProt O15550); experiment: KDM6A enzymatic assay (AlphaLISA); type: biochemical
Experimental: (§1) The following assay protocol was used for all histone demethylases tested except KDM1A, KDM5A, B, and D, which are described below. Compounds were serially diluted into a 384-well Alpha plate as a DMSO solution and mixed with 5 μL reaction buffer (buffer A) containing 50 mM HEPES (pH 7.0), 0.1% BSA, and 0.003% Tween-20. The enzyme of interest was pre-incubated with 15 μM of Fe^2+ for 10 min (except 30 min for KDM2B) in reaction buffer A. 5 μL of the enzyme mixture was added to each of the compound-containing wells and incubated for 10 min. The reaction was started by addition of a 5 μL mixture containing 300 nM peptide substrate, 75 μM L-ascorbic acid, and 30 μM α-ketoglutarate in buffer A. This final 15 μL of reaction mixture was incubated for 20 min for KDM5B and 1 hour for the other KDM enzymes. The reaction was quenched with 10 μL of diluted AlphaLISA Acceptor beads (1:400) in Epigenetics Buffer and incubated for 60 min. The Donor beads were diluted 1:400 into Epigenetics Buffer in the dark and 10 μL of this was added to each well and incubated for another 60 min in the dark. The assay plates were read on an Enspire plate reader (PerkinElmer) using a standard AlphaLISA program.
(§2) Data was analyzed using GraphPad Prism 6.0 (La Jolla, CA). […] IC50 values were calculated as an average of at least two independent experiments.

[2] = molecular target: T1, KDM5D (Homo sapiens, UniProt Q9BY66); experiment: KDM5D enzymatic assay (LANCE TR-FRET); type: biochemical; conditions: IC50 of KDM5D over KDM5A
T1 construct: purchased Eurofins Cerep SA (assay run there as a contract service)
Experimental: KDM5D was tested using a LANCE TR-FRET assay by Eurofins Cerep SA (France). All concentrations were final unless noted otherwise. Inhibitors were added to a mixture containing 45 mM HEPES/Tris-HCl (pH 7.5), 5 μM ferrous ammonium sulfate, 100 μM ascorbic acid, 10 μM 2-oxoglutarate, 0.01% Tween 20, 0.01% BSA, and 10 ng of enzyme, followed by addition of 100 nM biotin-H3K4me3 substrate. The 10 μL reaction mixture was incubated for 10 min at room temperature and quenched through the addition of 1 mM EDTA to reach a final concentration of 0.33 mM EDTA. After 5 min, the Eu-labeled anti-methyl histone H3K4me1-2 antibody and the Ulight streptavidin were added, and the mixture was incubated for 60 min. The fluorescence resonance energy transfer was measured using an excitation wavelength of 320 nm and emission wavelengths of 620 nm and 665 nm on an Envision plate reader (Perkin Elmer).
as §2

[3] = molecular target: KDM3A (Homo sapiens, UniProt Q9Y4C1); experiment: KDM3A enzymatic assay (AlphaLISA); type: biochemical
Experimental: as §1, §2

[4] = test system: H3K4me3:H3; experiment: Global H3K4me3:H3 ratio by ELISA in HBV-infected PHH; type: cell-based, human; conditions: single pulse dose; day nine
Experimental: For the pulse dose regimen, medium containing compound was removed after two hours incubation and replaced with fresh maintenance medium every three to four days. Cells in the pulse dose experiment received only one dose of compound (Day = 0). Histones were enriched from tissue and PBMC samples using the AbCam total histone extraction kit (Cambridge, UK; ab113476) according to the manufacturer’s protocol after cell/tissue dissociation with an IKA T10 TURRAX homogenizer (Wilmington, NC; […] Histones were enriched from 500,000 to 750,000 PHH. PHH monolayers were washed once with cold (4°C) 1X DPBS (Dulbecco’s phosphate buffered saline; 21-031-CV, Corning Inc.). Cold triton extraction buffer (TEB): 1X DPBS, 0.5% triton X-100 (Sigma-Aldrich, T9284), 2 mM phenylmethylsulfonyl fluoride (PMSF; Thermo Fisher Scientific, 36978), was added to the cell monolayer at a density of 1 x 10^6 cells/mL. After 10-minute incubation in TEB at 4°C, the cell monolayer was scraped and cells were pelleted by centrifuged at 1200 rpm at 4°C for 10 minutes. […] Total protein concentration of all samples following histone enrichment was determined using a bicinchoninic acid (BCA) assay (Thermo Fisher Scientific; 23225). […] Absorbance of each well was measured at 450 nm within five minutes using a SpectraMax Plus 384 Microplate Reader (Molecular Devices; PLUS 384).

KDM6A, sequence (O15550 whole entry): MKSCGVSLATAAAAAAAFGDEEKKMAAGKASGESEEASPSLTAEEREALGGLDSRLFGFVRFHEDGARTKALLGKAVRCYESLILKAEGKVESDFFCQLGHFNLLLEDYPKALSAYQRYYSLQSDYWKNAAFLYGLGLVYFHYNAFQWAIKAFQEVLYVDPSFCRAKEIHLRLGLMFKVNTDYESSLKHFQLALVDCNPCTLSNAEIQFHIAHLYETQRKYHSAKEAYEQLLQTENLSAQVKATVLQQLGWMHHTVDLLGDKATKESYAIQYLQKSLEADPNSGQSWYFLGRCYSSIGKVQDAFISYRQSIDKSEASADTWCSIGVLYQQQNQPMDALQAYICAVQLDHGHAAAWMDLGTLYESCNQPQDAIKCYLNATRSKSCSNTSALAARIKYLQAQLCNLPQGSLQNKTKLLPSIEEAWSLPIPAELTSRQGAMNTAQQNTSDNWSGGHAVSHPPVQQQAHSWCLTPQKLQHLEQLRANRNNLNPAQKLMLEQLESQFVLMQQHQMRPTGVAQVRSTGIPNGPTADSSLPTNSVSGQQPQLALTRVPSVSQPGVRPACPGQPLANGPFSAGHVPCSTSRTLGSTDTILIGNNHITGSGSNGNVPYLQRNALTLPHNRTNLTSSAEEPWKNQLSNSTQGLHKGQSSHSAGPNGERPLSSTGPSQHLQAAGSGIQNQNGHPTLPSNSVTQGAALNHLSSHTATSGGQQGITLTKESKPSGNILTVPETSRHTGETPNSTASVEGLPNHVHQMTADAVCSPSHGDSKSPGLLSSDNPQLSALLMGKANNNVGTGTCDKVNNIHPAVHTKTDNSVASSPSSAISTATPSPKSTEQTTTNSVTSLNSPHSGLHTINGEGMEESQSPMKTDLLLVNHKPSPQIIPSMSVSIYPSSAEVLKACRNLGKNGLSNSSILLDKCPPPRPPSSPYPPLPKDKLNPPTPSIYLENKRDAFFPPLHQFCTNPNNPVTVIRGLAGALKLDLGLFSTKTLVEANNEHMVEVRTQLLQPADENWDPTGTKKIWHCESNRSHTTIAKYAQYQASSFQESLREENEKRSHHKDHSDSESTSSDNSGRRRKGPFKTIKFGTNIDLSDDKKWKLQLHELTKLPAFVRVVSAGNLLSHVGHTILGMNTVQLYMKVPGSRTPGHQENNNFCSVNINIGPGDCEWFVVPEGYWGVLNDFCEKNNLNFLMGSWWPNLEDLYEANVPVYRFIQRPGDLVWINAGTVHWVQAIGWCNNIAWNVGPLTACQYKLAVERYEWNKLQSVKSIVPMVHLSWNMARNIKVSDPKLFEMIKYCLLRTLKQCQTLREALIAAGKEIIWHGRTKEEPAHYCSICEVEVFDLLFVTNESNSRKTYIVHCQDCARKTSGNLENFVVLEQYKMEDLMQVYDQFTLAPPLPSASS
KDM3A, sequence (Q9Y4C1 whole entry): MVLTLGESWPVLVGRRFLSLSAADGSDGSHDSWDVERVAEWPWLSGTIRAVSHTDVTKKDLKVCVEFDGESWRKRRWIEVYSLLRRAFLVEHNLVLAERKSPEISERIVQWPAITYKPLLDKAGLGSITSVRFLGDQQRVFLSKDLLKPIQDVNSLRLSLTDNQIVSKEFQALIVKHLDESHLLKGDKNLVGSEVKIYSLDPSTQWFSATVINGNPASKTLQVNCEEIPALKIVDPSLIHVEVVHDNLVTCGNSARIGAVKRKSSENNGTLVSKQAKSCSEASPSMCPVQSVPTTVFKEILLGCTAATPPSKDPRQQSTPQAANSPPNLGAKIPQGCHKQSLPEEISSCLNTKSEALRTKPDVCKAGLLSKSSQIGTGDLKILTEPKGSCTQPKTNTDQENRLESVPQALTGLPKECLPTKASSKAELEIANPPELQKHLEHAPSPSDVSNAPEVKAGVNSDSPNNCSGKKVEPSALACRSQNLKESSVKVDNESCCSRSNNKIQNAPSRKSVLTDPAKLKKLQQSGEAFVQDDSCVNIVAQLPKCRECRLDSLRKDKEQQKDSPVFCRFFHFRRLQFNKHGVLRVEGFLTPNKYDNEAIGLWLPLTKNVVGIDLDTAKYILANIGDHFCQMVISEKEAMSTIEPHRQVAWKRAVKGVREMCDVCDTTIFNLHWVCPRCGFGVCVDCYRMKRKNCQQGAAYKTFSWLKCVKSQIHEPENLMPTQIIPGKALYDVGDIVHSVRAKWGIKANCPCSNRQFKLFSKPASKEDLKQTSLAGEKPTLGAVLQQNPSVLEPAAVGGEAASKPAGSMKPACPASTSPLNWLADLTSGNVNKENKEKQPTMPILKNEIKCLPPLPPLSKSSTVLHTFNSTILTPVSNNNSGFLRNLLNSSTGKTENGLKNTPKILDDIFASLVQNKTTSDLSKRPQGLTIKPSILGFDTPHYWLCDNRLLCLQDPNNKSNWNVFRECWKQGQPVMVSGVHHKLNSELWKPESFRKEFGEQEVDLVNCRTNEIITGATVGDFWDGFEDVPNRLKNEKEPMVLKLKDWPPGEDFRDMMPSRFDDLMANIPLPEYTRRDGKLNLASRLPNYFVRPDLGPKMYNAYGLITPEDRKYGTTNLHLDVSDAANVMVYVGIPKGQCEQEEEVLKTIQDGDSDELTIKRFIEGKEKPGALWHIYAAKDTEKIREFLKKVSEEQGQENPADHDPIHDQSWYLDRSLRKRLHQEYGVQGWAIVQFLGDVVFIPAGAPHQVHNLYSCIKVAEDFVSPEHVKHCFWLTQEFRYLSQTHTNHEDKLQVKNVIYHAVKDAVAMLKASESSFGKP
T1 sequence (Q9BY66 whole entry): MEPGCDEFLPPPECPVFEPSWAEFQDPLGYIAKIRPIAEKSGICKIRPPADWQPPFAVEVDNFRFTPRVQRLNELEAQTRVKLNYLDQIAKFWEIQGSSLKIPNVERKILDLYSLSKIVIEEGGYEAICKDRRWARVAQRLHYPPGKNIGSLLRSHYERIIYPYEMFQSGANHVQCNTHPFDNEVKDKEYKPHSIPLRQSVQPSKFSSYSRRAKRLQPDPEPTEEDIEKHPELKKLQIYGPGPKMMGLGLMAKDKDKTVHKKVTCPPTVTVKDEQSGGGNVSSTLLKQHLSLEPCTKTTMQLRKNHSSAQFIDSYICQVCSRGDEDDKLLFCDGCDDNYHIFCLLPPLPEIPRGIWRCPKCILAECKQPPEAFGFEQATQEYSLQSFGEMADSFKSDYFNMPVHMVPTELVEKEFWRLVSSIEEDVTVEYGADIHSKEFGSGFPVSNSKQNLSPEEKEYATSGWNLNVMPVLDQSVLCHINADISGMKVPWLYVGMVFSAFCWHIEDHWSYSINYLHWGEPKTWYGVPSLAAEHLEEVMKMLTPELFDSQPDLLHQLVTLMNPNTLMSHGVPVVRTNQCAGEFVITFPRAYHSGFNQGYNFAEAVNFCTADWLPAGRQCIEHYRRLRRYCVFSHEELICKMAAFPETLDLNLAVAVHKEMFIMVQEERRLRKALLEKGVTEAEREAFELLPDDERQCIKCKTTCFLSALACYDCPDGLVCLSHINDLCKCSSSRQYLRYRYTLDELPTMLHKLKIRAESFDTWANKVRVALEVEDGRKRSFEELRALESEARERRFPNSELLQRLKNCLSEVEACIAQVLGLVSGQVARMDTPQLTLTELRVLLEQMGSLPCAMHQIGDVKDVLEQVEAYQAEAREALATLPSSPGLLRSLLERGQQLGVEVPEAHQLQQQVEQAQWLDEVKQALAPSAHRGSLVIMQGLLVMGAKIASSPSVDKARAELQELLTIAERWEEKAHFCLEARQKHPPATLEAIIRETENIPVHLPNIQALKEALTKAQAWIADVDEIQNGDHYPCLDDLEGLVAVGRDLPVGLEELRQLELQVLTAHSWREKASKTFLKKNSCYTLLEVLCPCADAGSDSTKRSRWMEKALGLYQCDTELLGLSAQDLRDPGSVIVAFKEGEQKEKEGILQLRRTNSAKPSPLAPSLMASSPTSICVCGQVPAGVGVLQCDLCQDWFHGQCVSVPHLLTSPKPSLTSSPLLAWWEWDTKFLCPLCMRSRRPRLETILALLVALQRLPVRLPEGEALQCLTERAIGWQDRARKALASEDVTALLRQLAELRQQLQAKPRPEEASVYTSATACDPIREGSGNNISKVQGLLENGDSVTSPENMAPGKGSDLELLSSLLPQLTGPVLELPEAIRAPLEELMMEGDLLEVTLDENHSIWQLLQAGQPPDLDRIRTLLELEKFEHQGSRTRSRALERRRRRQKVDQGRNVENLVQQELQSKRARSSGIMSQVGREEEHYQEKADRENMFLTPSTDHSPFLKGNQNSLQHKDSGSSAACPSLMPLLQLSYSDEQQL

Row | SMILES | Fold Selectivity Compared to KDM5A ([1]; IC50 of KDM6A over KDM5A) | IC50 ([1]; enzyme concentration 2 nM) [µM] | Fold Selectivity Compared to KDM5A [2] [fold] | Fold Selectivity Compared to KDM5A ([3]; IC50 of KDM3A over KDM5A) | IC50 ([3]; enzyme concentration 0.3 nM) [µM] | H3K4me3:H3 level [4]
1 | CCN(CCN(C)C)C(=O)CNCc1cc(C(=O)O)ccn1 [GS-080] | > 17,200 fold | 6.2 | 183 | > 4,720 fold | 1.7 | –
2 | CCOC(=O)c1ccnc(CNCC(=O)N(CC)CCN(C)C)c1 [GS-5801] | – | – | – | – | – | almost back to baseline levels; also recorded: near baseline levels
